Counter-ions that a name gives are not always drawn. Like-named read-outs stand apart in the source and are kept apart here.
Tests used:
[1] = target: T1, human GPR40 (Homo sapiens, UniProt O14842); assay: FDSS-based intracellular calcium assay (Human GRP40 in vitro assay); assay type: cell-based; parameters: 3xFLAG; expressed in transfected cells; conditions: cells expressing GPR40, intracellular Ca2+ response, FDSS reader; read-out: hGPR40 EC50
In short: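 GPR40-expressing cells, plated overnight in serum-free phenol red-free DMEM, loaded with Fluo-3 in HBSS with 1.7 mM probenecid for 30 min at 37° C. Compounds in DMSO, diluted in assay buffer, added as 3× solutions; intracellular Ca^2+ response read on FDSS.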

[2] = target: T1, human GPR40

T1 sequence (O14842 whole entry): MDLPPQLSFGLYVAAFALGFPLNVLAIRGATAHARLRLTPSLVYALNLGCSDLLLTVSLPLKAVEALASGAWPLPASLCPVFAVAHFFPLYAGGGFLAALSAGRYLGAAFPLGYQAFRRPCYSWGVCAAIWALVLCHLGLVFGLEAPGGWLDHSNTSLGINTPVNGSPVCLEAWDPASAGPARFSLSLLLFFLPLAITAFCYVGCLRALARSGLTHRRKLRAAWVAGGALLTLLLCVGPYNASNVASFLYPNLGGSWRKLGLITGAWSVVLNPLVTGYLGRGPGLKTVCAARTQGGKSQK

Compound | EC50 [1] [nM] | EC50 [2] [nM]
COc1ccc(F)c(N2CCC(Oc3ccc(N4CC(C(F)(F)F)C(C)C4CC(=O)O)cc3)CC2)c1 (single isomer, unassigned) [Example 26, Isomer 1, 2-((2,3-trans,3,4-trans)-1-(4-((1-(2-Fluoro-5-methoxyphenyl)piperidin-4-yl)oxy)phenyl)-3-methyl-4-(trifluoromethyl)pyrrolidin-2-yl)acetic acid, HCl] | 220 | 140
CCOc1ccc(F)c(N2CCC(Oc3ccc(N4C[C@H](C(F)(F)F)C[C@@H]4CC(=O)O)cc3)C(CC(C)C)C2)c1 (single isomer, unassigned) [Example 35, Isomer 2, HCl] | 330 | 17
COc1ccc(F)c(N2CCC(Oc3ccc(N4CCCC4CC(=O)O)cc3)CC2)c1 (single isomer, unassigned) [Example 48, Isomer 2, 2-(1-(4-((1-(2-Fluoro-5-methoxyphenyl)piperidin-4-yl)oxy)phenyl)pyrrolidin-2-yl)acetic acid] | 1400 | 2500
COc1ccc(F)c(N2CCC(Oc3ccc(N4C[C@H](OC)C[C@@H]4CC(=O)O)cc3)C(C)C2)c1 (single isomer, unassigned) [Example 52, Isomer 2] | 600 | 140
COc1ccc(F)c(N2CCC(Oc3ccc(N4CC(F)(F)C[C@@H]4CC(=O)O)cc3)C(C)C2)c1 (single isomer, unassigned) [Example 53, Isomer 2, HCl] | 49 | 49
COc1ccc(C2CCCC2(C)C)c(N2CCC(Oc3ccc(N4C[C@H](OC)C[C@@H]4CC(=O)O)cc3)CC2)c1 (single isomer, unassigned) [Example 65, Isomer 1] | 33 | 10
COc1cc(N2CCC(Oc3ccc(N4C[C@H](OC)[C@@H](C)[C@@H]4CC(=O)O)cn3)CC2)c(C2CCCC2(C)C)cn1 (single isomer, unassigned) [Example 151, Isomer 1, HCl] | 38 | 4
COc1ccc(F)c(N2CCC(Oc3ccc(N4C[C@H](C(F)(F)F)C[C@@H]4CC(=O)O)cc3)CC2)c1 [Example 1, 2-((2R,4R)-1-(4-((1-(2-Fluoro-5-methoxyphenyl)piperidin-4-yl)oxy)phenyl)-4-(trifluoromethyl)pyrrolidin-2-yl)acetic acid, HCl] | 210 | 310
COc1ccc(F)c(N2CCC(Oc3ccc(N4C[C@H](OC)C[C@@H]4CC(=O)O)cc3)CC2)c1 [Example 4, 2-((2R,4R)-1-(4-((1-(2-Fluoro-5-methoxyphenyl)piperidin-4-yl)oxy)phenyl)-4-methoxypyrrolidin-2-yl)acetic acid, HCl] | 170 | 240
COc1ccc(F)c(N2CCC(Cc3ccc(N4C[C@H](C(F)(F)F)C[C@@H]4CC(=O)O)cc3)CC2)c1 [Example 16, 2-((2R,4R)-1-(4-((1-(2-Fluoro-5-methoxyphenyl)piperidin-4-yl)methyl)phenyl)-4-(trifluoromethyl)pyrrolidin-2-yl)acetic acid, HCl] | 530 | 73
COc1ccc(F)c(N2CCC(Oc3ccc(N4C[C@H](OC(C)C)C[C@@H]4CC(=O)O)cc3)C(C)C2)c1 (stereo partly drawn) [Example 38, 2-((2R,4R)-1-(4-(((3,4-trans)-1-(2-Fluoro-5-methoxyphenyl)-3-methylpiperidin-4-yl)oxy)phenyl)-4-isopropoxypyrrolidin-2-yl)acetic acid, TFA] | 69 | 73
CCOc1ccc(F)c(N2CCC(Oc3ccc(N4CC(C)(OC)C[C@@H]4CC(=O)O)cc3)C(C)C2)c1 (stereo partly drawn) [Example 47, 2-((2R)-1-(4-(((3,4-trans)-1-(5-Ethoxy-2-fluorophenyl)-3-methylpiperidin-4-yl)oxy)phenyl)-4-methoxy-4-methylpyrrolidin-2-yl)acetic acid, HCl] | 170 | 18
COc1ccc(C)c(N2CCC(Oc3ccc(N4C[C@H](OC)C[C@@H]4CC(=O)O)cc3)CC2)c1 [Example 57, 2-((2R,4R)-4-Methoxy-1-(4-((1-(5-methoxy-2-methylphenyl)piperidin-4-yl)oxy)phenyl)pyrrolidin-2-yl)acetic acid, TFA] | 160 | 83
COc1ccc(C2CC2)c(N2CCC(Oc3ccc(N4C[C@H](OC)C[C@@H]4CC(=O)O)cc3)CC2)c1 [Example 59, 2-((2R,4R)-1-(4-(1-(2-Cyclopropyl-5-methoxyphenyl)piperidin-4-yloxy)phenyl)-4-methoxypyrrolidin-2-yl)acetic acid, TFA] | 290 | 38
COc1cc(N2CCC(Oc3ncc(N4C[C@H](F)[C@@H](C)[C@@H]4CC(=O)O)cc3F)C(C)C2)c(Cl)cn1 (stereo partly drawn) [Example 164, 2-((2S,3S,4R)-1-(6-(((3,4-trans)-1-(5-Chloro-2-methoxypyridin-4-yl)-3-methylpiperidin-4-yl)oxy)-5-fluoropyridin-3-yl)-4-fluoro-3-methylpyrrolidin-2-yl)acetic acid] | 110 | –
COc1cc(N2CCC(Oc3ncc(N4C[C@H](OC)[C@@H](C)[C@@H]4CC(=O)O)cc3C(F)(F)F)C(C)C2)c(Cl)cn1 (stereo partly drawn) [Example 165, 2-((2S,3S,4R)-1-(6-(((3,4-trans)-1-(5-Chloro-2-methoxypyridin-4-yl)-3-methylpiperidin-4-yl)oxy)-5-(trifluoromethyl)pyridin-3-yl)-4-methoxy-3-methylpyrrolidin-2-yl)acetic acid] | 47 | –
COc1cc(N2CCC(Oc3ccc(N4C[C@H](OC)[C@@H](C)[C@@H]4CC(=O)O)nc3)C(C)C2)c(Cl)cn1 (stereo partly drawn) [Example 166, 2-((2S,3S,4R)-1-(5-(((3,4-trans)-1-(5-Chloro-2-methoxypyridin-4-yl)-3-methylpiperidin-4-yl)oxy)pyridin-2-yl)-4-methoxy-3-methylpyrrolidin-2-yl)acetic acid] | 420 | –
COc1cc(N2CCC(Oc3ncc(N4C[C@H](OC)[C@@H](C)[C@@H]4CC(=O)O)cc3OC(C)C)C(C)C2)c(Cl)cn1 (stereo partly drawn) [Example 167, 2-((2S,3S,4R)-1-(6-(((3,4-trans)-1-(5-Chloro-2-methoxypyridin-4-yl)-3-methylpiperidin-4-yl)oxy)-5-isopropoxypyridin-3-yl)-4-methoxy-3-methylpyrrolidin-2-yl)acetic acid] | 45 | –
COc1cc(N2CCC(Oc3ncc(N4C[C@H](OC)[C@@H](C)[C@H]4CC(=O)O)cc3F)C(C)C2)c(Cl)cn1 (stereo partly drawn) [Example 168, 2-((2R,3S,4R)-1-(6-(((3,4-trans)-1-(5-Chloro-2-methoxypyridin-4-yl)-3-methylpiperidin-4-yl)oxy)-5-fluoropyridin-3-yl)-4-methoxy-3-methylpyrrolidin-2-yl)acetic acid] | 500 | –
COc1cc(N2CCC(Oc3cnc(N4C[C@H](OC)[C@@H](C)[C@@H]4CC(=O)O)nc3)C(C)C2)c(Cl)cn1 (stereo partly drawn) [Example 170, 2-((2S,3S,4R)-1-(5-(((3,4-trans)-1-(5-Chloro-2-methoxypyridin-4-yl)-3-methylpiperidin-4-yl)oxy)pyrimidin-2-yl)-4-methoxy-3-methylpyrrolidin-2-yl)acetic acid] | 1700 | –
COc1cc(N2CCC(Oc3cnc(N4C[C@H](OC)[C@@H](C)[C@@H]4CC(=O)O)c(F)c3)C(C)C2)c(Cl)cn1 (stereo partly drawn) [Example 171, 2-((2S,3S,4R)-1-(5-(((3,4-trans)-1-(5-Chloro-2-methoxypyridin-4-yl)-3-methylpiperidin-4-yl)oxy)-3-fluoropyridin-2-yl)-4-methoxy-3-methylpyrrolidin-2-yl)acetic acid] | 410 | –

From patent US9714231B2, “Pyrrolidine GPR40 modulators” (BRISTOL-MYERS SQUIBB COMPANY, priority 2012, dated 2017)
